In patent US20210338709A1, “USES OF MODIFIED RNA ENCODING RETINALDEHYDE DEHYDROGENASE” (priority 2018, published 2021):

Key:
[1] = system: mucosal memory responses; test: Effect of ATRA on immune responses in skin-draining lymph nodes in vivo
[2] = system: Salmonella; details: ATRA during parenteral immunization, reference 12; cited from earlier work

CC1=C(/C=C/C(C)=C/C=C/C(C)=C/C(=O)O)C(C)(C)CCC1 [ATRA, all-trans retinoic acid]
mucosal memory responses at mucosal surfaces [1]: not only enhanced in the small intestine, but also at other mucosal surfaces
protection against Salmonella infections [2]: convey protection against Salmonella infections
